Activity calls are given as the source filed them. No rule for the calls is given here.
Test system: CCRIS mutagenicity, Ames/micronucleus/aberration tests
Experiment: CCRIS mutagenicity studies
[1] = Test System: AMES SALMONELLA TYPHIMURIUM, Strain/Indicator: TA100, Metabolic Activation: NONE, Method: PREINCUBATION

CCCCCCc1ccc(-c2ccc(C#N)cc2)cc1
mutagenic call (Test System: AMES SALMONELLA TYPHIMURIUM, Strain/Indicator: TA97, Metabolic Activation: HAMSTER, LIVER, S-9, AROCLOR 1254 (10 OR 30%), Method: PREINCUBATION): inactive; negative
mutagenic call (Test System: AMES SALMONELLA TYPHIMURIUM, Strain/Indicator: TA97, Metabolic Activation: NONE, Method: PREINCUBATION): inactive; negative
mutagenic call (Test System: AMES SALMONELLA TYPHIMURIUM, Strain/Indicator: TA97, Metabolic Activation: RAT, LIVER, S-9, AROCLOR 1254 (10 OR 30%), Method: PREINCUBATION): inactive; negative
mutagenic call (Test System: AMES SALMONELLA TYPHIMURIUM, Strain/Indicator: TA98, Metabolic Activation: HAMSTER, LIVER, S-9, AROCLOR 1254 (10 OR 30%), Method: PREINCUBATION): inactive; negative
mutagenic call (Test System: AMES SALMONELLA TYPHIMURIUM, Strain/Indicator: TA98, Metabolic Activation: NONE, Method: PREINCUBATION): inactive; negative
mutagenic call (Test System: AMES SALMONELLA TYPHIMURIUM, Strain/Indicator: TA98, Metabolic Activation: RAT, LIVER, S-9, AROCLOR 1254 (10 OR 30%), Method: PREINCUBATION): inactive; negative
mutagenic call (Test System: AMES SALMONELLA TYPHIMURIUM, Strain/Indicator: TA100, Metabolic Activation: HAMSTER, LIVER, S-9, AROCLOR 1254 (10 OR 30%), Method: PREINCUBATION): inactive; negative
mutagenic call [1]: inactive; negative
mutagenic call (Test System: AMES SALMONELLA TYPHIMURIUM, Strain/Indicator: TA100, Metabolic Activation: RAT, LIVER, S-9, AROCLOR 1254 (10 OR 30%), Method: PREINCUBATION): inactive; negative
mutagenic call (Test System: AMES SALMONELLA TYPHIMURIUM, Strain/Indicator: TA1535, Metabolic Activation: HAMSTER, LIVER, S-9, AROCLOR 1254 (10 OR 30%), Method: PREINCUBATION): inactive; negative
mutagenic call (Test System: AMES SALMONELLA TYPHIMURIUM, Strain/Indicator: TA1535, Metabolic Activation: NONE, Method: PREINCUBATION): inactive; negative
mutagenic call (Test System: AMES SALMONELLA TYPHIMURIUM, Strain/Indicator: TA1535, Metabolic Activation: RAT, LIVER, S-9, AROCLOR 1254 (10 OR 30%), Method: PREINCUBATION): inactive; negative
mutagenic call (Test System: AMES SALMONELLA TYPHIMURIUM, Strain/Indicator: TA1537, Metabolic Activation: HAMSTER, LIVER, S-9, AROCLOR 1254 (10 OR 30%), Method: PREINCUBATION): inactive; negative
mutagenic call (Test System: AMES SALMONELLA TYPHIMURIUM, Strain/Indicator: TA1537, Metabolic Activation: NONE, Method: PREINCUBATION): inactive; negative
mutagenic call (Test System: AMES SALMONELLA TYPHIMURIUM, Strain/Indicator: TA1537, Metabolic Activation: RAT, LIVER, S-9, AROCLOR 1254 (10 OR 30%), Method: PREINCUBATION): inactive; negative

O=C(Cl)c1ccccc1
mutagenic call (Test System: AMES SALMONELLA TYPHIMURIUM, Strain/Indicator: TA98, Metabolic Activation: NONE, Method: 0-1000 UG/PLATE): active; positive
mutagenic call (Test System: AMES SALMONELLA TYPHIMURIUM, Strain/Indicator: TA98, Metabolic Activation: RAT LIVER S-9, PCB, Method: PREINCUBATION): active; positive
mutagenic call [1]: active; positive
mutagenic call (Test System: AMES SALMONELLA TYPHIMURIUM, Strain/Indicator: TA100, Metabolic Activation: NONE, Method: STANDARD PLATE): active; positive
mutagenic call (Test System: AMES SALMONELLA TYPHIMURIUM, Strain/Indicator: TA100, Metabolic Activation: RAT LIVER S-9, PCB, Method: PREINCUBATION): active; positive
mutagenic call (Test System: AMES SALMONELLA TYPHIMURIUM, Strain/Indicator: TA104, Metabolic Activation: NONE, Method: PREINCUBATION): active; positive
mutagenic call (Test System: AMES SALMONELLA TYPHIMURIUM, Strain/Indicator: TA104, Metabolic Activation: RAT LIVER S-9, PCB, Method: PREINCUBATION): active; positive
mutagenic call (Test System: E.COLI, Strain/Indicator: WP2 UVRA, Metabolic Activation: NONE, Method: PREINCUBATION): active; positive
mutagenic call (Test System: E.COLI, Strain/Indicator: WP2 UVRA, Metabolic Activation: RAT LIVER S-9, PCB, Method: PREINCUBATION): active; positive

— PubChem BioAssay AID1259407 (Chemical Carcinogenesis Research Information System (CCRIS), 2018)
